Laboratory results: patent US12715867B2, “Agonists of free fatty acid receptor 1 and their use in diseases associated with said receptor” (HALO Therapeutics Ltd, priority 2020, dated 2026)

System: C57Bl/6N male mice
Assay: OGTT testing in C57Bl/6N male mice (oral glucose tolerance test)
Format: in vivo
Details: single per os dose 60 min before glucose 2 g/kg; Z1558775684 20 mg/kg, Metformin 300 mg/kg; compared with Vehicle-treated group; 5 mice per group
Experimental: Values are expressed as means of 5 animals tested. For glucose tolerance test (GTT), mice were orally treated with glucose at dose of 2 g/kg at the dose volume of 10 ml/kg after a 6-hour fasting. Glucose measurements were performed immediately before compound treatment (−60 min), at −30 min, 0 min (before glucose administration), and then 15, 30, 60, 90 and 120 min after glucose administration.
Example 87: OGTT Testing in C57Bl/6N Male Mice
Each experimental group consisted of five male C57Bl/6N mice. Animals were dosed once perorally with 20 mg/kg of tested compound Z1558775684. A control group was dosed with vehicle on the same schedule. Metformin at the dosage of 300 mg/kg was used as reference compound.
Compound Z1558775684 was dissolved/suspended in DMSO—PEG400—physiological saline (20%:50%:30%) at concentration 4 mg/ml. Metformin was dissolved in the same vehicle at concentration 60 mg/ml. The test samples were administered per os in the volume corresponding to 5 ml/kg body weight.
Single doses of test samples were administered 60 min before glucose treatment at 3 p.m.
The blood glucose level was measured after 6-hour fasting using Call Plus glucometer and specific test strips. Blood was obtained from the tail vein by incision of the tail tip, 5-6 μl of blood was used for each assay. […]

## CCc1nc(N)nc(SCc2ncc(-c3cccc(Cl)c3)o2)n1 [Compound Z1558775684, 4-(((5-(3-chlorophenyl)oxazol-2-yl)methyl)thio)-6-ethyl-1,3,5-triazin-2-amine]
  glucose level during oral glucose tolerance test (OGTT): Statistically significant decrease in glucose level

## CN(C)C(=N)N=C(N)N [Metformin]
  glucose level during oral glucose tolerance test (OGTT): Statistically significant decrease in glucose level
